Measured values as given in patent publication US7972831B2, “Lipases from thermophilic anaerobes” (Novozymes A/S, priority 2004, dated 2011).

Legend:
[1] = system: lipase; assay: Effect of detergent ingredients on lipase activity; type: biochemical; details: 1.5 hours at 30° C., up to 10% by weight of compound
Protocol: The activity of the lipase was tested after incubation for 1.5 hours at 30° C. with up to 10% by weight of various compounds.

[2] = system: lipase of SEQ ID NO: 2; assay: Positional specificity towards monoglycerides; type: biochemical, Thermoanaerobacter thermohydrosulfuricus
[3] = Effect of pH on lipase activity; type: biochemical
[4] = Specific activity of purified lipase; type: biochemical, Thermoanaerobacter thermohydrosulfuricus; details: after three-step purification
Protocol: The lipase solution obtained after hydrophobic interaction chromatography was loaded on a hydroxilapatite column used as a second purification step. The lipase was eluted at the approximate mid-point of the sodium phosphate buffer gradient (220 to 250 mM range). The active fractions were further subjected to gel filtration column. […] The enzyme activity was present in the second major peak. The lipase was purified approximately 133.5-fold over the crude extract with a 10.2% yield. The specific activity of the purified lipase was 12.3 U/mg.

Molecule	effect on activity after incubation [1]	activity at pH 6.5-9.0 [3]	also measured
CCCCCCCC/C=C\CCCCCCCC(=O)OCCOCC(OCCO)C1OCC(OCCO)C1OCCO (stereo not drawn) [Tween-80]	decreased the activity	–	–
Triton X-100	decreased the activity	–	–
monopalmitoyl glycerols	–	–	hydrolysis of 1-positional ester bond lower in comparison with 2-positional ester bond [2]: less than 2 fold
lipase of SEQ ID NO: 4: polypeptide having lipase activity from Caldanaerobacter subterraneus subsp. tengcongensis DSM 15242 (protein, listed as Thermoanaerobacter tencongensis) VQKAVEFTYNRKTLRGMLHLPEGVSEKVPMVVMFHGFTGNKVESHFIFVKMSRALEKVGIGSVRFDFYGSGESDGDFSEMTFSGELEDARQILDFVKRQPTTDVERIGLLGLSMGGAIAGIIARERKEDVKALVLWAPAFNMPELIMGEGARQYGAIMESLGYVDIGGLKLDRAFVEDIAKFNIFELSRGYEGKVLIVHGTNDEAVEYRISDRILQEVYGDNAFRVTIEGADHTFKNLEWERKAIEESVKFFERELKG	–	> 60%	–
lipase of SEQ ID NO: 2: polypeptide having lipase activity from Thermoanaerobacter thermohydrosulfuricus DSM 7021 and T. brockii subsp. brockii DSM 1457 (protein, listed as Thermoanaerobacter thermohydrosulfuricus) MQKAVEITYNGKTLRGMMHLPDDVKGKVPMVIMFHGFTGNKVESHFIFVKMSRALEKVGIGSVRFDFYGSGESDGDFSEMTFSSELEDARQILKFVKEQPTTDPERIGLLGLSMGGAIAGIVAREYKDEIKALVLWAPAFNMPELIMNESVKQYGAIMEQLGFVDIGGHKLSKDFVEDISKLNIFELSKGYDKKVLIVHGTNDEAVEYKVSDRILKEVYGDNATRVTIENADHTFKSLEWEKKAIEESVEFFKKELLKG	–	> 80%	specific activity of the purified lipase [4]: 12.3 U/mg
